# Laboratory results reported in patent US11813340B2, “PSMA targeted radiohalogenated urea-polyaminocarboxylates for cancer radiotherapy” (The Johns Hopkins University, priority 2018, dated 2023).
# Like-named read-outs stand apart in the source and are kept apart here.
# What was measured:
# [1] = system: PiP (tumor) and Flu (tumor); experiment: Biodistribution of [125I]VK-03-03 and [125I]VK-03-03-Lu in mice (Table 9); format: in vivo
# [2] = system: PSMA+PC3-PIP and PSMA-PC3-flu flank xenografts; experiment: Biodistribution of [125I/211At]2 and 3 with and without co-injection of DCIBzL (Example 6); format: in vivo, athymic mice; conditions: no co-injection
# Source text: Final compounds were purified by HPLC.
# [3] = system: PSMA + PC3-PIP and PSMA-PC3-flu flank xenografts; conditions: without cold blocking agent
# Method: Final compounds were purified by HPLC. […] Organs were harvested 1, 4, and 24 h post-injection (n=5 per time point).
# [4] = system: PSMA + PC3-PIP and PSMA-PC3-flu flank xenografts; experiment: Biodistribution of At-211 labeled PSMA inhibitors with and without cold blocking agent (Tables 6-8); format: in vivo, athymic mice; conditions: mice
smiles,measurement,setting,value
O=C(O)CC[C@H](NC(=O)N[C@@H](CCCCN(Cc1ccc(Br)cc1)C(=O)CCCCNC(=O)c1cc([125I])cc(C(=O)NCCNC(=O)CN2CCN(CC(=O)O)CCN(CC(=O)O)CCN(CC(=O)O)CC2)c1)C(=O)O)C(=O)O [[^125I]VK-03-03],"Biodistribution Data, Flu (tumor)",[1]; 1 H,2.0 ± 0.7
same,"Biodistribution Data, PiP (tumor)",[1]; 1 H,44.7 ± 12.2
same,"Biodistribution Data, bladder",[1]; 1 H,5.0 ± 2.9
same,"Biodistribution Data, blood",[1]; 1 H,1.6 ± 0.26
same,"Biodistribution Data, fat",[1]; 1 H,3.2 ± 0.7
same,"Biodistribution Data, heart",[1]; 1 H,1.6 ± 0.5
same,"Biodistribution Data, kidney",[1]; 1 H,132 ± 18.5
same,"Biodistribution Data, lacrimal gland",[1]; 1 H,25.4 ± 4.1
same,"Biodistribution Data, large intestine",[1]; 1 H,1.2 ± 0.06
same,"Biodistribution Data, liver",[1]; 1 H,0.9 ± 0.15
same,"Biodistribution Data, lung",[1]; 1 H,4.5 ± 0.6
same,"Biodistribution Data, muscle",[1]; 1 H,1.0 ± 0.2
same,"Biodistribution Data, pancreas",[1]; 1 H,1.8 ± 0.27
same,"Biodistribution Data, salivary gland",[1]; 1 H,5.0 ± 0.86
same,"Biodistribution Data, small intestine",[1]; 1 H,0.76 ± 0.13
same,"Biodistribution Data, spleen",[1]; 1 H,70.0 ± 20.4
same,"Biodistribution Data, stomach",[1]; 1 H,1.0 ± 0.12
same,"Biodistribution Data, Flu (tumor)",[1]; 4 H,1.2 ± 0.28
same,"Biodistribution Data, PiP (tumor)",[1]; 4 H,57.0 ± 15.9
same,"Biodistribution Data, bladder",[1]; 4 H,2.4 ± 0.5
same,"Biodistribution Data, blood",[1]; 4 H,0.49 ± 0.08
same,"Biodistribution Data, fat",[1]; 4 H,4.1 ± 1.5
same,"Biodistribution Data, heart",[1]; 4 H,0.9 ± 0.03
same,"Biodistribution Data, kidney",[1]; 4 H,165 ± 14.4
same,"Biodistribution Data, lacrimal gland",[1]; 4 H,15.8 ± 4.9
same,"Biodistribution Data, large intestine",[1]; 4 H,0.58 ± 0.19
same,"Biodistribution Data, liver",[1]; 4 H,0.4 ± 0.2
same,"Biodistribution Data, lung",[1]; 4 H,2.3 ± 0.3
same,"Biodistribution Data, muscle",[1]; 4 H,0.64 ± 0.22
same,"Biodistribution Data, pancreas",[1]; 4 H,1.5 ± 0.05
same,"Biodistribution Data, salivary gland",[1]; 4 H,3.5 ± 0.4
same,"Biodistribution Data, small intestine",[1]; 4 H,0.37 ± 0.08
same,"Biodistribution Data, spleen",[1]; 4 H,37.4 ± 8.9
same,"Biodistribution Data, stomach",[1]; 4 H,0.95 ± 0.7
same,"Biodistribution Data, Flu (tumor)",[1]; 24 H,0.2 ± 0.09
same,"Biodistribution Data, PiP (tumor)",[1]; 24 H,54.1 ± 6.3
same,"Biodistribution Data, bladder",[1]; 24 H,1.6 ± 0.75
same,"Biodistribution Data, blood",[1]; 24 H,0.09 ± 0.02
same,"Biodistribution Data, fat",[1]; 24 H,0.37 ± 0.28
same,"Biodistribution Data, heart",[1]; 24 H,0.17 ± 0.08
same,"Biodistribution Data, kidney",[1]; 24 H,141 ± 18.3
same,"Biodistribution Data, lacrimal gland",[1]; 24 H,2.6 ± 0.76
same,"Biodistribution Data, large intestine",[1]; 24 H,0.11 ± 0.06
same,"Biodistribution Data, liver",[1]; 24 H,0.09 ± 0.02
same,"Biodistribution Data, lung",[1]; 24 H,0.58 ± 0.2
same,"Biodistribution Data, muscle",[1]; 24 H,0.1 ± 0.05
same,"Biodistribution Data, pancreas",[1]; 24 H,0.26 ± 0.07
same,"Biodistribution Data, salivary gland",[1]; 24 H,0.6 ± 0.16
same,"Biodistribution Data, small intestine",[1]; 24 H,0.08 ± 0.03
same,"Biodistribution Data, spleen",[1]; 24 H,4.9 ± 2.7
same,"Biodistribution Data, stomach",[1]; 24 H,0.18 ± 0.06
same,clearance of radioactivity in the kidneys,"[1]; mouse, in vivo",does not clear over time
same,tumor uptake,"[1]; mouse, in vivo",high and prolonged tumor uptake
O=C(O)CC[C@H](NC(=O)N[C@@H](CCCCN(Cc1ccc([125I])cc1)C(=O)CCCCNC(=O)CN1CCN(CC(=O)O)CCN(CC(=O)O)CCN(CC(=O)O)CC1)C(=O)O)C(=O)O [[^125I]VK-02-90],"retention of radioactivity, lacrimal glands (LG)",[2]; 1h,17.4±6.0 % ID/g
same,"retention of radioactivity, salivary glands (SG)",[2]; 1h,5.1±3.4 % ID/g
same,"retention of radioactivity, kidneys (K)",[2]; 4 h,162±36 % ID/g
same,"retention of radioactivity, kidneys (K)",[2]; 24 h,30.6±14.0 % ID/g
same,"Biodistribution, Blood",[3]; 1 H,1.1 ± 0.3 % injected dose/g
same,"Biodistribution, Flu tumor",[3]; 1 H,1.4 ± 0.6 % injected dose/g
same,"Biodistribution, Kidneys",[3]; 1 H,194 ± 25 % injected dose/g
same,"Biodistribution, Lacrimal glands",[3]; 1 H,17.4 ± 6.0 % injected dose/g
same,"Biodistribution, Pip (tumor)",[3]; 1 H,58 ± 14 % injected dose/g
same,"Biodistribution, Salivary glands",[3]; 1 H,5.1 ± 3.4 % injected dose/g
same,"Biodistribution, Spleen",[3]; 1 H,40.2 ± 16.4 % injected dose/g
same,"Biodistribution, Stomach",[3]; 1 H,1.1 ± 0.3 % injected dose/g
same,"Biodistribution, Blood",[3]; 4 H,0.2 ± 0.03 % injected dose/g
same,"Biodistribution, Flu tumor",[3]; 4 H,0.3 ± 0.06 % injected dose/g
same,"Biodistribution, Kidneys",[3]; 4 H,162 ± 36 % injected dose/g
same,"Biodistribution, Lacrimal glands",[3]; 4 H,1.9 ± 0.45 % injected dose/g
same,"Biodistribution, Pip (tumor)",[3]; 4 H,38 ± 13 % injected dose/g
same,"Biodistribution, Salivary glands",[3]; 4 H,0.7 ± 0.2 % injected dose/g
same,"Biodistribution, Spleen",[3]; 4 H,4.7 ± 1.2 % injected dose/g
same,"Biodistribution, Stomach",[3]; 4 H,0.4 ± 0.2 % injected dose/g
same,"Biodistribution, Blood",[3]; 24 H,0.02 ± 0.01 % injected dose/g
same,"Biodistribution, Flu tumor",[3]; 24 H,0.04 ± 0.02 % injected dose/g
same,"Biodistribution, Kidneys",[3]; 24 H,30.6 ± 14.0 % injected dose/g
same,"Biodistribution, Lacrimal glands",[3]; 24 H,0.5 ± 0.2 % injected dose/g
same,"Biodistribution, Pip (tumor)",[3]; 24 H,51 ± 7 % injected dose/g
same,"Biodistribution, Salivary glands",[3]; 24 H,0.3 ± 0.3 % injected dose/g
same,"Biodistribution, Spleen",[3]; 24 H,0.7 ± 0.4 % injected dose/g
same,"Biodistribution, Stomach",[3]; 24 H,0.05 ± 0.03 % injected dose/g
O=C(O)CC[C@H](NC(=O)N[C@@H](CCCCN(Cc1ccc([211At])cc1)C(=O)CCCCNC(=O)CN1CCN(CC(=O)O)CCN(CC(=O)O)CCN(CC(=O)O)CC1)C(=O)O)C(=O)O [[^211At]VK-02-90],radioactivity in the stomach,[4],very low
same,stability in-vivo,[4],stable in-vivo
